Consider one compound from patent publication US10070660B2, “Pet food palatability with antimicrobial properties based on organic acids” (KEMIN INDUSTRIES, INC., priority 2012, dated 2018).

The structures appear in SMILES notation. A value given as a limit tells only on which side of the number the result lay.

Test [1] deals with Salmonella enterica subsp. enterica (ATCC 51741). As to the kind of experiment: Microplate assay, inhibition of S. enterica growth in modified TSB (OD600 over 48 h). The settings on record: microtiter plate, 0.025-0.100% in TSB, 37 C. In kind it is cell-based. As to the method:
FIG. 1 is a chart of the effect of fumaric acid (0%; 0.025%; 0.050%; 0.100%) on the growth of Salmonella enterica ser. Infantis in modified tryptic soy broth (pH 4.93) for 48 hours at 37° C.
Salmonella enterica subsp. enterica (ATCC® 51741™), was obtained from the American Type Culture Collection (ATCC®) and kept as a frozen stock at −70° C. in Bacto™ Tryptic Soy Broth (TSB) with 20% (w/v) glycerol. One vial of the frozen stock culture was thawed at room temperature and 0.100 mL was transferred to 100 mL TSB (pH 7.2) containing (g/l) pancreatic digest of casein: 17, enzymatic digest of soybean meal: 3, sodium chloride, 5, dipotassium phosphate: 2.5, dextrose, 2.5, then incubated at 37° C. for 24 hours on a platform shaker set at 190 rpm. […]
A 0.20% stock solution of fumaric acid was made by dissolving 0.100 g (w/v) fumaric acid in 50 ml sterile deionized water in a flask. […] The pH of each fumaric-TSB solution was measured (Table 1). […] The microplate was placed in a Versamax Microplate Reader (Molecular Devices) (37° C.) with wavelength set to 600 nm. The optical density (OD600) was read every 2 hours for 48 hours.
Solutions of fumaric acid at three different concentrations (Table 3) were evaluated for inhibition of S. enterica growth in vitro using a microplate assay and measuring optical density over time (FIG. 1).

Test [2] relates to Salmonella spp. As to the kind of experiment: Cat palatant solutions (15% w/v) challenged with liquid Salmonella spp. inoculum. The test is classed as cell-based, Salmonella enterica. As to the method:
In the Phase 3 experiment described below, solutions (15% w/v) of cat palatant samples were challenged with a “Low” concentration (1,000 CFU/ml) and a “High” concentration (1,000,000 CFU/ml) of a liquid Salmonella spp. inoculum in an effort to evaluate the antimicrobial effect of each palatant. Salmonella was enumerated from each palatant at three time points after challenge; immediately, 24 hours and 6 days.
Preparation of palatant samples. Four samples of a cat palatant formulated with varying levels of fumaric acid (Table 6) were aseptically weighed in duplicate sterile 50 ml conical test tubes. To each test tube, 10 ml of sterile deionized water was added and mixed by vortex. The pH of a 5% (w/v) solution of each palatant was also measured (Table 6).
Five Salmonella enterica serovars [S. enterica (ATTC® 51741™), Montevideo (ATCC® 8387™), Typhimurium (ATCC® 14028™), Senftenberg (ATCC® 43845™), Schwarzengrund (4012)] were kept as frozen stocks at −70° C. in Bacto™ Tryptic Soy Broth (TSB) with 20% (w/v) glycerol. One vial of each culture was thawed at room temperature and 0.100 ml was transferred to […] (pH 7.2) containing (g/l) pancreatic digest of casein: 17, enzymatic digest of soybean meal: 3, sodium chloride, 5, dipotassium phosphate: 2.5, dextrose, 2.5, then incubated at 37° C. for 24 hours on a platform shaker set at 190 rpm. One ml of each overnight culture was diluted in 9 ml 0.85% saline and enumerated using a Petroff Hauser Counting Chamber. Each culture was further diluted in 0.85% saline to obtain two concentrations of inoculum; 100,000 CFU/ml (Low) and 100,000,000 CFU/ml (High).
One hundred μl of each Low and High diluted Salmonella inoculum was pipetted into one of each duplicate palatant tubes to obtain one tube with 1,000 CFU/ml (Low) and one tube with […] (High). Samples were analyzed immediately after challenging, 24 hours and 6 days after storage at 25° C.
Each tube of palatant was vortexed prior to serially diluting. Dilutions were pipetted into sterile petri plates. The plates were poured with tempered (45° C.) XLD agar. After solidification, plates were inverted and placed in an incubator (37° C.). Colonies were counted and CFU/ml was calculated. Detection limit of the method was 1 CFU/ml.

Take `O=C(O)/C=C/C(=O)O` [Fumaric Acid, fumaric acid]: the “inhibition of S. enterica growth in vitro (in words)” value in test [1] was “effective antimicrobial agent”. In addition, the Salmonella counts in test [2] (High inoculation (1,000,000 CFU/ml), 14% fumaric, day 0) is reported as under 1 CFU/ml; in test [2] (High inoculation, 14% fumaric, day 1), under 1 CFU/ml; in test [2] (High inoculation, 14% fumaric, day 6), under 1 CFU/ml; in test [2] (High inoculation, 20% fumaric, day 0) it was under 1 CFU/ml; in test [2] (High inoculation, 20% fumaric, day 1), under 1 CFU/ml; in test [2] (High inoculation, 20% fumaric, day 6) it was under 1 CFU/ml. Moreover, the Salmonella counts in test [2] (High inoculation, 27% fumaric, day 0) was under 1 CFU/ml; in test [2] (High inoculation, 27% fumaric, day 1) it was under 1 CFU/ml; in test [2] (High inoculation, 27% fumaric, day 6) it was under 1 CFU/ml; in test [2] (Low inoculation (1,000 CFU/ml), 14% fumaric in palatant, day 0), under 1 CFU/ml; in test [2] (Low inoculation, 14% fumaric, day 1) it was under 1 CFU/ml; in test [2] (Low inoculation, 14% fumaric, day 6), under 1 CFU/ml. Further, the Salmonella counts is under 1 CFU/ml in test [2] (Low inoculation, 20% fumaric, day 0); under 1 CFU/ml in test [2] (Low inoculation, 20% fumaric, day 1); under 1 CFU/ml in test [2] (Low inoculation, 20% fumaric, day 6); under 1 CFU/ml in test [2] (Low inoculation, 27% fumaric, day 0); under 1 CFU/ml in test [2] (Low inoculation, 27% fumaric, day 1); under 1 CFU/ml in test [2] (Low inoculation, 27% fumaric, day 6).
